Reference: ChEMBL document CHEMBL5370611, “Discovery of 4,5,6,7-Tetrahydropyrazolo[1.5-a]pyrizine Derivatives as Core Protein Allosteric Modulators (CpAMs) for the Inhibition of Hepatitis B Virus” (J Med Chem, 2023)
In brackets after ≈: the same amount, converted by molar mass. Activity calls are given as the source filed them. The rule behind the calls is not given here.

How the values were obtained:
[1] = Lyophilization solubility of the compound in phosphate buffer at pH 6.5 incubated for 1 hr under stirring condition and 2 hrs under shaking condition by HPLC-UV analysis; type: physicochemical
[2] = test system: Hepatitis B virus; test: Inhibition of HBV replication transfected in human HepG2.2.15 cells assessed as inhibition of encapsidated DNA formation in cell lysate incubated for 5 days by SDS-PAGE analysis; type: functional, organism-based; conditions: dose <= 10.0 µM, time 5.0 day
[3] = Resistance index, ratio of EC50 for wild type Hepatitis B virus to EC50 for Hepatitis B virus harboring L180M/M204 V/A194T transfected in human HepG2 cells measured after 6 days by qPCR analysis; type: functional; conditions: time 6 day
[4] = Resistance index, ratio of EC50 for wild type Hepatitis B virus to EC50 for Hepatitis B virus harboring A181V/N236T transfected in human HepG2 cells measured after 6 days by qPCR analysis; type: functional; conditions: time 6 day
[5] = Metabolic stability in human liver microsomes assessed as clearance at 1 uM preincubated for 10 mins and measured upto 30 mins in presence of NADPH generating system by LC-MS/MS analysis; type: ADME, Microsome; conditions: time < 40 min
[6] = test system: Hepatitis B virus; test: Antiviral activity against HBV infected in human HepG2.2.15 cells assessed as reduction in HBV DNA replication measured after 5 days by qPCR analysis; type: functional, organism-based; conditions: HepG2.2.15, 120 h
[7] = Cytotoxicity against human HepDE19 cells assessed as reduction in cell viability measured after 5 days by CCK-8 method; type: functional; conditions: HepDE19, 120 h, time 5 day
[8] = Resistance index, ratio of EC50 for wild type Hepatitis B virus to EC50 for Hepatitis B virus harboring N236T transfected in human HepG2 cells measured after 6 days by qPCR analysis; type: functional; conditions: time 6 day
[9] = test system: Hepatitis B virus; test: Inhibition of HBV replication transfected in human HepG2.2.15 cells assessed as assessed as induction of capsid degradation in cell lysate at upto 10 uM incubated for 5 days by SDS-PAGE analysis; type: functional, organism-based; conditions: time 5.0 day
[10] = Resistance index, ratio of EC50 for wild type Hepatitis B virus to EC50 for Hepatitis B virus harboring […] transfected in human HepG2 cells measured after 6 days by qPCR analysis; type: functional; conditions: time 6 day
[11] = Resistance index, ratio of EC50 for wild type Hepatitis B virus to EC50 for Hepatitis B virus harboring L180M/M204 V/S202G transfected in human HepG2 cells measured after 6 days by qPCR analysis; type: functional; conditions: time 6 day
[12] = Resistance index, ratio of EC50 for wild type Hepatitis B virus to EC50 for Hepatitis B virus harboring A181T/N236T transfected in human HepG2 cells measured after 6 days by qPCR analysis; type: functional; conditions: time 6 day
[13] = Selectivity index, ratio of CC50 for human HepDE19 cells assessed as reduction in cell viability to EC50 for HBV infected in human HepG2.2.15 cells assessed as reduction in HBV DNA replication; type: toxicity, cell-based; conditions: HBV-infected HepG2.2.15 cells (EC50)
[14] = Resistance index, ratio of EC50 for wild type Hepatitis B virus to EC50 for Hepatitis B virus harboring M204 V transfected in human HepG2 cells measured after 6 days by qPCR analysis; type: functional; conditions: time 6 day
[15] = Resistance index, ratio of EC50 for wild type Hepatitis B virus to EC50 for Hepatitis B virus harboring L180M/M204 V/M250 V/[…] transfected in human HepG2 cells measured after 6 days by qPCR analysis; type: functional; conditions: time 6 day
[16] = Resistance index, ratio of EC50 for wild type Hepatitis B virus to EC50 for Hepatitis B virus harboring A181T transfected in human HepG2 cells measured after 6 days by qPCR analysis; type: functional; conditions: time 6 day
[17] = Resistance index, ratio of EC50 for wild type Hepatitis B virus to EC50 for Hepatitis B virus harboring A181V transfected in human HepG2 cells measured after 6 days by qPCR analysis; type: functional; conditions: time 6 day
[18] = Resistance index, ratio of EC50 for wild type Hepatitis B virus to EC50 for Hepatitis B virus harboring L180M/M204V transfected in human HepG2 cells measured after 6 days by qPCR analysis; type: functional; conditions: time 6 day
[19] = test system: Hepatitis B virus; test: Inhibition of HBV replication transfected in human HepG2.2.15 cells assessed as assessed as induction of total core protein degradation in cell lysate at upto 10 uM incubated for 5 days by SDS-PAGE analysis; type: functional, organism-based; conditions: time 5.0 day
[20] = Metabolic stability in mouse liver microsomes assessed as clearance at 1 uM preincubated for 10 mins and measured upto 30 mins in presence of NADPH generating system by LC-MS/MS analysis; type: ADME, Microsome; conditions: time < 40 min
[21] = Resistance index, ratio of EC50 for wild type Hepatitis B virus to EC50 for Hepatitis B virus harboring L180M/M204 V/T184G/[…] transfected in human HepG2 cells measured after 6 days by qPCR analysis; type: functional; conditions: time 6 day
[22] = AUC (0 to infinity) in C57BL/6 mouse plasma at 5 mg/kg, po administered as single dose measured upto 24 hrs by LC-MS/MS analysis; type: ADME, organism-based; set-up: time < 24 hrs, dose 5 mg/kg, route po
[23] = Half life in C57BL/6 mouse plasma at 2 mg/kg, iv administered as single dose measured upto 24 hrs by LC-MS/MS analysis; type: ADME, organism-based
[24] = Cmax in C57BL/6 mouse plasma at 5 mg/kg, po administered as single dose measured upto 24 hrs by LC-MS/MS analysis; type: ADME, organism-based; set-up: dose 5 mg/kg, time < 24 hrs, route po
[25] = AUC (0 to infinity) in C57BL/6 mouse plasma at 2 mg/kg, iv administered as single dose measured upto 24 hrs by LC-MS/MS analysis; type: ADME, organism-based; set-up: dose 2 mg/kg, time < 24 hrs, route iv
[26] = Ratio of AUC (0 to infinity) in liver to plasma of C57BL/6 mouse liver at 5 mg/kg, po administered as single dose measured upto 24 hrs by LC-MS/MS analysis; type: ADME, organism-based; conditions: read-out: Ratio AUC
[27] = AUC (0 to infinity) in C57BL/6 mouse liver at 5 mg/kg, po administered as single dose measured upto 24 hrs by LC-MS/MS analysis; type: ADME, organism-based; set-up: time < 24 hrs, dose 5 mg/kg, route po
[28] = Oral bioavailability in C57BL/6 mouse plasma at 5 mg/kg administered as single dose measured upto 24 hrs by LC-MS/MS analysis; type: ADME, organism-based
[29] = Clearance in C57BL/6 mouse plasma at 2 mg/kg, iv administered as single dose measured upto 24 hrs by LC-MS/MS analysis; type: ADME, organism-based
[30] = Volume of distribution at steady state in C57BL/6 mouse plasma at 2 mg/kg, iv administered as single dose measured upto 24 hrs by LC-MS/MS analysis; type: ADME, organism-based; conditions: read-out: Vdss
[31] = Plasma protein binding in mouse assessed as free fraction incubated for 5 hrs by LC-MS/MS analysis; type: ADME, cell-free
[32] = Clearance in C57BL/6 mouse plasma at 1 mg/kg, iv administered as single dose measured upto 24 hrs by LC-MS/MS analysis; type: ADME, organism-based
[33] = Half life in C57BL/6 mouse plasma at 1 mg/kg, iv administered as single dose measured upto 24 hrs by LC-MS/MS analysis; type: ADME, organism-based
[34] = AUC (0 to infinity) in C57BL/6 mouse liver at 3 mg/kg, po administered as single dose measured upto 24 hrs by LC-MS/MS analysis; type: ADME, organism-based; set-up: dose 3 mg/kg, time < 24 hrs, route po
[35] = Cmax in C57BL/6 mouse plasma at 3 mg/kg, po administered as single dose measured upto 24 hrs by LC-MS/MS analysis; type: ADME, organism-based; set-up: time < 24 hrs, dose 3 mg/kg, route po
[36] = Ratio of AUC (0 to infinity) in liver to plasma of C57BL/6 mouse liver at 3 mg/kg, po administered as single dose measured upto 24 hrs by LC-MS/MS analysis; type: ADME, organism-based; conditions: read-out: Ratio AUC
[37] = Oral bioavailability in C57BL/6 mouse plasma at 3 mg/kg administered as single dose measured upto 24 hrs by LC-MS/MS analysis; type: ADME, organism-based
[38] = Volume of distribution at steady state in C57BL/6 mouse plasma at 1 mg/kg, iv administered as single dose measured upto 24 hrs by LC-MS/MS analysis; type: ADME, organism-based; conditions: read-out: Vdss
[39] = AUC (0 to infinity) in C57BL/6 mouse plasma at 3 mg/kg, po administered as single dose measured upto 24 hrs by LC-MS/MS analysis; type: ADME, organism-based; set-up: time < 24 hrs, dose 3 mg/kg, route po
[40] = AUC (0 to infinity) in C57BL/6 mouse plasma at 1 mg/kg, iv administered as single dose measured upto 24 hrs by LC-MS/MS analysis; type: ADME, organism-based; set-up: dose 1 mg/kg, time < 24 hrs, route iv
[41] = test system: Hepatitis B virus; test: In vivo antiviral activity against AAV encapsidated HBV infected in C57BL/6 mouse model assessed as log reduction in serum HBV DNA level at 20 mg/kg, BID measured on day 4 by quantitative real-time PCR analysis; type: functional; conditions: time 4 day
[42] = test system: Hepatitis B virus; test: In vivo antiviral activity against AAV encapsidated HBV infected in C57BL/6 mouse model assessed as reduction in serum HBV DNA level at 20 mg/kg, BID measured on day 6 by quantitative real-time PCR analysis; type: functional, organism-based; conditions: time 6.0 day
[43] = test system: Hepatitis B virus; test: In vivo antiviral activity against AAV encapsidated HBV infected in C57BL/6 mouse model assessed as log reduction in serum HBV DNA level at 20 mg/kg, BID measured on day 2 by quantitative real-time PCR analysis; type: functional; conditions: time 2 day

Structure (SMILES)	solubility at 3 h [1]	CLhep predicted at 1 µM [5]	EC50 [6]	CC50 [7]	selectivity ratio [13]	CLhep predicted at 1 µM [20]	AUC(0-inf) [22]	half-life [23]	Cmax [24]	AUC(0-inf) [25]	Kp at 24 h [26]	AUC(0-inf) [27]	bioavailability [28]	clearance [29]	Vd [30]	fraction unbound at 5 h [31]	also measured
C[C@H]1Cn2ncc(N3CCCC3=O)c2CN1C(=O)Nc1ccc(F)c(Cl)c1	330 µg/mL (≈ 842 µM)	11 mL/min/kg	36 nM	94000 nM	2600	50 mL/min/kg											inhibition [2]: Dose-Dependent Effect; Ratio EC50 [3]: 2.2; Ratio EC50 [4]: 2.2; Ratio EC50 [8]: 1.4; inhibition [9]: inactive; Ratio EC50 [10]: 1.9; Ratio EC50 [11]: 1.9; Ratio EC50 [12]: 2.2; Ratio EC50 [14]: 1.8; Ratio EC50 [15]: 2.4; Ratio EC50 [16]: 1.6; Ratio EC50 [17]: 2.1; Ratio EC50 [18]: 2.6; inhibition [19]: inactive; Ratio EC50 [21]: 2.9
C[C@H]1Cn2ncc(N3CCCC3=O)c2CN1C(=O)Nc1cc(F)c(F)c(F)c1	430 µg/mL (≈ 1090 µM)	6.5 mL/min/kg	42 nM	> 100000 nM	> 2380	29 mL/min/kg	2640 ng·h/mL	1 h	1130 ng/mL	2440 ng·h/mL	3.2	8550 ng·h/mL	43%	13.7 mL/min/kg	1 L/kg	0.18	
O=C(Nc1ccc(F)cc1)N1CCn2ncc(-c3ccc(F)cc3)c2C1	< 1 µg/mL	14 mL/min/kg	124 nM	55000 nM	443	56 mL/min/kg											clearance [32]: 146 mL/min/kg; half-life [33]: 0.36 h; AUC(0-inf) [34]: 5110 ng·h/mL; Cmax [35]: 407 ng/mL; Kp at 24 h [36]: 18.5; bioavailability [37]: 44%; Vd [38]: 2.1 L/kg; AUC(0-inf) [39]: 276 ng·h/mL; AUC(0-inf) [40]: 208 ng·h/mL
C[C@H]1Cn2ncc(N3CCOCC3=O)c2CN1C(=O)Nc1ccc(F)c(Cl)c1	156 µg/mL (≈ 383 µM)	7.1 mL/min/kg	27 nM	> 100000 nM	> 3700	39 mL/min/kg	4180 ng·h/mL	2 h	1330 ng/mL	3520 ng·h/mL	2.6	10900 ng·h/mL	48%	10 mL/min/kg	1.4 L/kg	0.31	log(activity) [41]: 0.5; Activity [42]: inactive; log(activity) [43]: 0.67
